Experimental data: article PMC11831560, “Development of the Pyrido[2,3-d]pyrimidin-7(8H)-one Scaffold toward Potent and Selective NUAK1 Inhibitors” (ACS Medicinal Chemistry Letters, 2025)
Where “and” joins values, the source holds several entries; their conditions need not be identical. Equal values may be shown once.

Assays:
MARK2 = biological target: T1, MARK2 (Homo sapiens, UniProt Q7KZI7); experiment: ADP-Glo biochemical assay MARK2; conditions: for IC50: ADP-Glo assay, read-out: MARK2 pIC50 (converted)
T1 construct: purchased MRC PPU
Procedure: (§1) Biological experimental procedures
(§2) ADP-Glo biochemical assays
(§3) Protein kinase activity in the presence of inhibitor compounds was determined by ADP-Glo assay (Promega), as previously described.1,2 Compounds were serialised using a Labcyte Echo 520 and transferred to 384 well plates (Greiner 784201) followed by the addition 5 µL of substrate containing peptide and ATP at Km in buffer (see Table S6). 5 µL of purified protein was added and the plate was incubated for 60 minutes at room temperature (ng/well; see Table S6). 3 µL of assay mixture was transferred using an Integra Viaflo384 into a white low volume plate (Greiner 781904) prior to the addition of 3 µL of ADP-Glo Reagent™ for a further 40 minute incubation. After incubation with 6 µL of Kinase Detection Reagent for 30 minutes, plate luminescence was read (Pherastar FSX, BMG […]
(§4) 30 mM HEPES pH7.4, 3 mM MgCl2, 3 mM MnCl2, 1.2 mM DTT, 0.01% CHAPS
(§5) Table S6: Conditions for protein kinase ADP-Glo assays
(§6) ATP AT Peptide Peptide Enzyme Enzyme Assay Buffe Min.
(§7) Protein conc. P Peptide name conc. supplier amount supplier vol. r na […]
(§8) NUAK1 µM µM Sakamototide 50 µM Merck 6.7 ng PPU 10 µl A 6
(§9) A µM µM Sakamototide 100 µM Merck 1 ng PPU 10 µl B 2 […]
(§10) aMin. n: Minimum number of technical replicates per compound

NUAK1 [1] = biological target: T2, NUAK1 (Homo sapiens, UniProt O60285); experiment: NanoBRET target engagement assay, HEK293 cells; conditions: cell-based NanoBRET target engagement assay
T2 sequence (O60285 1-661): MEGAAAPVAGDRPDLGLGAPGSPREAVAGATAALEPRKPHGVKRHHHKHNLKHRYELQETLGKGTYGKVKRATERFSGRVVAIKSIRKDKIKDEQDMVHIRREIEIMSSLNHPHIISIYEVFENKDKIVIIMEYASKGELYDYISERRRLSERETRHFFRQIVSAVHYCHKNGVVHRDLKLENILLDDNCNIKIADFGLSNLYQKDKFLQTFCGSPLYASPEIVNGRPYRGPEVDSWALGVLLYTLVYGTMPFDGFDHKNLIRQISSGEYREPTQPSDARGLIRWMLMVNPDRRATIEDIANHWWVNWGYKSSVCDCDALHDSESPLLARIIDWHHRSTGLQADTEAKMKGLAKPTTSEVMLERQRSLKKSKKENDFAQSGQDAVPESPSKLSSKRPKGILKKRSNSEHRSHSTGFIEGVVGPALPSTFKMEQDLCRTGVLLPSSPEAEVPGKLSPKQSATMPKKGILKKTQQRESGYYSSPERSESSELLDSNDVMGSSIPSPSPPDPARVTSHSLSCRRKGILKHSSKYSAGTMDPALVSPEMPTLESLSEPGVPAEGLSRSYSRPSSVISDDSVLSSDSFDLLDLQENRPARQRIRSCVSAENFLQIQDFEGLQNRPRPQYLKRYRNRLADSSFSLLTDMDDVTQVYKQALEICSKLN
Procedure: NanoBRET® target engagement assay
The binding of compounds to NUAK1 in intact cells was assessed using an NanoBRET® TE Intracellular Kinase Assay (Promega N2501). HEK293 cells transiently transfected with NanoLuc®- NUAK1 Fusion Vector (Promega NV1831) were incubated with 10 nL K5 tracer (provided in the kit, Promega N2501) and 40 nL of the test compounds in 100% DMSO in a white low volume non-binding 384 assay plate (Grenier Bio One 784904) for 90 min at 37 °C. After incubation, followed by cooling for 15 min at room temperature, 4 µL of the Intracellular TE Nano-Glo ® Substrate/Inhibitor (Promega N2160) was added to each well. The plate was read using a Pherastar FSX plate reader (BMG Labtech).
Minimum number of 2 technical replicates per compound.
Activity pIC50 values and standard error of the mean (SEM) were estimated using a 4-parameter fit (Dotmatics). The SEM for all reported data was 0.2 or lower. See Experimental Procedures for minimum number of replicates per compound. Each experiment included a Standard compound whose pIC50 value was compared to a quality control chart. If the Standard pIC50 value fell outside the range of pIC50 +/-3 standard deviation, then the experiment was invalidated. […]

NUAK1 [2] = biological target: T2, NUAK1; experiment: ADP-Glo biochemical assay NUAK1; design: purchased MRC PPU; conditions: ADP-Glo assay; for IC50: read-out: NUAK1 pIC50 (converted)
Procedure: as §1, §2, §3, §4, §5, §6, §7, §8, §9, §10

MARK3 = biological target: T3, MARK3 (Homo sapiens, UniProt P27448); experiment: ADP-Glo biochemical assay MARK3; conditions: for MARK3 pIC50 / IC50: ADP-Glo assay; for IC50: read-out: MARK3 pIC50 (converted)
T3 construct: purchased MRC PPU
Procedure: as §1, §2, §3, §4, §5, §6, §7, §8, §9, §10

MARK1 = biological target: T4, MARK1 (Homo sapiens, UniProt Q9P0L2); experiment: ADP-Glo biochemical assay MARK1; conditions: for IC50: ADP-Glo assay, read-out: MARK1 pIC50 (converted)
T4 construct: purchased MRC PPU
Procedure: as §1, §2, §3, §4, §5, §6, §7, §8, §9, §10

AMPKA α1β2γ1 [3] = biological target: T5, AMPKA α1β2γ1 (Homo sapiens, UniProt O43741+P54619+Q13131); experiment: ADP-Glo biochemical assay AMPKA; conditions: ADP-Glo assay; read-out: AMPKA pIC50 (converted)
T5 construct: purchased MRC PPU
Procedure: as §1, §2, §3, §4, §5, §6, §7, §8, §9, §10

AMPKA α1β2γ1 [4] = biological target: T6, AMPKA α1β2γ1 (Homo sapiens, UniProt Q13131); experiment: ADP-Glo biochemical assay AMPKA; conditions: AMPKA IC50/NUAK1 IC50
T6 construct: purchased MRC PPU
Procedure: as §1, §2, §3, §4, §5, §6, §7, §8, §9, §10

MARK4 = biological target: T7, MARK4 (Homo sapiens, UniProt Q96L34); experiment: ADP-Glo biochemical assay MARK4; conditions: for IC50: ADP-Glo assay, read-out: MARK4 pIC50 (converted)
T7 construct: purchased MRC PPU
T7 sequence (Q96L34 1-752): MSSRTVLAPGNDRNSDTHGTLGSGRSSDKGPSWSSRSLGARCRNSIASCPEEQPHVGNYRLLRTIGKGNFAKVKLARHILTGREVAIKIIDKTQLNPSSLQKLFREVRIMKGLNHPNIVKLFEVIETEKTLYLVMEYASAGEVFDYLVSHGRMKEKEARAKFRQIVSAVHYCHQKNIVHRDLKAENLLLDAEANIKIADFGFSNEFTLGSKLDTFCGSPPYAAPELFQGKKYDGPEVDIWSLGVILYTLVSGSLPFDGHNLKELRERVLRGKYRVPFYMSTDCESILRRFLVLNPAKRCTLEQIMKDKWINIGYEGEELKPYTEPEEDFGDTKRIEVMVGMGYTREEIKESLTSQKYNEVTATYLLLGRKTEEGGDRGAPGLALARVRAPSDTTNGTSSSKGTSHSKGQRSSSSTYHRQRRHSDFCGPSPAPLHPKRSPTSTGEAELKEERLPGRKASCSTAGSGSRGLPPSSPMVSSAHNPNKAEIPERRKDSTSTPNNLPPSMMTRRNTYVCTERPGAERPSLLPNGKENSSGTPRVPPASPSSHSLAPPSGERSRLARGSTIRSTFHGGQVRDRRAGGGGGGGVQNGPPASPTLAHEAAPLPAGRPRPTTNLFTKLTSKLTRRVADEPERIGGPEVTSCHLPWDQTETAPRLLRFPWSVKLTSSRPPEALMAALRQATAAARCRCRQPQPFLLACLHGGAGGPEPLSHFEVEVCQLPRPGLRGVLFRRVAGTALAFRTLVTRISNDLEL
Procedure: as §1, §2, §3, §4, §5, §6, §7, §8, §9, §10

[5] = Microsomal stability, mouse; format: in vitro ADME; conditions: mouse liver microsomes; read-out: MLM t1/2
Procedure: (§11) All single point assay determinations carried out in duplicate.
(§12) ADMET and PK experimental methods
(§13) Microsomal stability: analysis was performed by Cyprotex Discovery. […]

[6] = Microsomal stability, human; format: in vitro ADME; conditions: human liver microsomes; read-out: HLM t1/2
Procedure: as §11, §12, §13

T3 sequence (P27448 whole entry): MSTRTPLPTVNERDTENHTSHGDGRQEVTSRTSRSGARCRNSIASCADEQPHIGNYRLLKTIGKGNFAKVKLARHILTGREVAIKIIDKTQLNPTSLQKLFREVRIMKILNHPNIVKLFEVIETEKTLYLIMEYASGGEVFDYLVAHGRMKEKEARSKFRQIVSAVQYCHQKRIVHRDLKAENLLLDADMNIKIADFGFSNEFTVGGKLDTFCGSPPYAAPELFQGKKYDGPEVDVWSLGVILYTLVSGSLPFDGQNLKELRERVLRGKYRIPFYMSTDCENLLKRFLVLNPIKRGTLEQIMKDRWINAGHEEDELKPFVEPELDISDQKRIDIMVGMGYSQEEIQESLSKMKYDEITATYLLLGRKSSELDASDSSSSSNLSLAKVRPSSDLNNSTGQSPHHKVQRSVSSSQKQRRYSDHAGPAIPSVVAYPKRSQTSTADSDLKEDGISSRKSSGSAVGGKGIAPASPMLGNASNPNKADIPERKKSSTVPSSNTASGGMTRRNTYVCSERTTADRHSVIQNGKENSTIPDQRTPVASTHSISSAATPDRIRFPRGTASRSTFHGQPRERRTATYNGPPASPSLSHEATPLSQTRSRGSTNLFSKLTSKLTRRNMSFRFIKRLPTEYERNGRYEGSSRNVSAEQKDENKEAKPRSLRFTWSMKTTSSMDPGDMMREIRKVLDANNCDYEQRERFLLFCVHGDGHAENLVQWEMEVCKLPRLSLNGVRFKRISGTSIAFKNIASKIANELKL
T4 sequence (Q9P0L2 whole entry): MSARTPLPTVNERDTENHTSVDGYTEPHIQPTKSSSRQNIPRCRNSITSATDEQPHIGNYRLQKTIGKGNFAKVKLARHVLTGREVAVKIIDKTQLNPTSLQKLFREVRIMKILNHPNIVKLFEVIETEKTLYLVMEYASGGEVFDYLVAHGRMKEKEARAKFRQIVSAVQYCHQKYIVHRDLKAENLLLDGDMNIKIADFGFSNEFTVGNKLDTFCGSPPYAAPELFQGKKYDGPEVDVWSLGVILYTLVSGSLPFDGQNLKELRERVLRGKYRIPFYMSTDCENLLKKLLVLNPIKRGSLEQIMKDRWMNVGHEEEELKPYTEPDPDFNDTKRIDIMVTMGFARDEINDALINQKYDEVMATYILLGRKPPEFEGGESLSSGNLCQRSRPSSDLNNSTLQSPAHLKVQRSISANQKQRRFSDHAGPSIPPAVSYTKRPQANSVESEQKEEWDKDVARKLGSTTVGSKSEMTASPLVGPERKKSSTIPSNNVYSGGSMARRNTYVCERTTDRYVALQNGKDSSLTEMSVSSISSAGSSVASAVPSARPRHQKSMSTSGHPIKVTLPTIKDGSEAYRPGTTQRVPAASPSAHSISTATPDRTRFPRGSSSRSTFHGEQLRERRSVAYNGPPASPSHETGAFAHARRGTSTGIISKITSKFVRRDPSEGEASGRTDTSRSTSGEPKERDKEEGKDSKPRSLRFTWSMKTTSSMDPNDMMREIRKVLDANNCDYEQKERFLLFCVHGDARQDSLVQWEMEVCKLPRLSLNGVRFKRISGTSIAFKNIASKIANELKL
T6 sequence (Q13131 11-559 limits assumed): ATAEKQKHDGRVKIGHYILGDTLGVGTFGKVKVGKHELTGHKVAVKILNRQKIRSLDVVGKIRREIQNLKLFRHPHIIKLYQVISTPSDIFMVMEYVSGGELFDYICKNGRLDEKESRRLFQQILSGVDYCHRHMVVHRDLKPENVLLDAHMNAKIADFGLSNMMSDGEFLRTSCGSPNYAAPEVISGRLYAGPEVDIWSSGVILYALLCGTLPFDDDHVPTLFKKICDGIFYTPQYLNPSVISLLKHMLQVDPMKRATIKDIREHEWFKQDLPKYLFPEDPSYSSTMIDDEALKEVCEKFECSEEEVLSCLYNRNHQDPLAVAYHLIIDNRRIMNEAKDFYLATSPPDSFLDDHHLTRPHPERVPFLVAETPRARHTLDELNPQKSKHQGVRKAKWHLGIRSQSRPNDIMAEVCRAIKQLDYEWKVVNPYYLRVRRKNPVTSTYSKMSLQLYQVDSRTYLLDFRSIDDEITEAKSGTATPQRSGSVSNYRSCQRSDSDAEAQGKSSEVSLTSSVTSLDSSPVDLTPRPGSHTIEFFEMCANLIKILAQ
T6 sequence (O43741 whole entry partner): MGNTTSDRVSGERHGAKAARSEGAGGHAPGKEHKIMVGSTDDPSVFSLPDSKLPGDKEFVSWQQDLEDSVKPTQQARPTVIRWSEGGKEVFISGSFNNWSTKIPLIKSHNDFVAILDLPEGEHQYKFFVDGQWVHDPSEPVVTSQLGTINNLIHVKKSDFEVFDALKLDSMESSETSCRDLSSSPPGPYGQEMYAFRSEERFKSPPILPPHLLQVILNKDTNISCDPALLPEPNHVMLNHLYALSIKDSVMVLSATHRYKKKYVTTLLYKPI
T6 sequence (P54619 whole entry partner): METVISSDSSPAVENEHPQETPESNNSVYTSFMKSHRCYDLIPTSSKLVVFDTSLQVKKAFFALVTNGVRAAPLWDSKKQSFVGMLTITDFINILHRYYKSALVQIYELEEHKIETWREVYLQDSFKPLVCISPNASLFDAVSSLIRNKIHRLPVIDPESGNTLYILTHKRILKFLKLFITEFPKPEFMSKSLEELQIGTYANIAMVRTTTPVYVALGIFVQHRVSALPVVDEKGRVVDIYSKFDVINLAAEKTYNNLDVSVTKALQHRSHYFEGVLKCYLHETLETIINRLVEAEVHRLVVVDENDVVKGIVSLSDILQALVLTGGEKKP
T5 sequence (Q13131 11-559 limits assumed): as the sequence (Q13131 11-559 limits assumed) above
T5 sequence (O43741 whole entry partner): as the sequence (O43741 whole entry partner) above
T5 sequence (P54619 whole entry partner): as the sequence (P54619 whole entry partner) above
T1 sequence (Q7KZI7 whole entry): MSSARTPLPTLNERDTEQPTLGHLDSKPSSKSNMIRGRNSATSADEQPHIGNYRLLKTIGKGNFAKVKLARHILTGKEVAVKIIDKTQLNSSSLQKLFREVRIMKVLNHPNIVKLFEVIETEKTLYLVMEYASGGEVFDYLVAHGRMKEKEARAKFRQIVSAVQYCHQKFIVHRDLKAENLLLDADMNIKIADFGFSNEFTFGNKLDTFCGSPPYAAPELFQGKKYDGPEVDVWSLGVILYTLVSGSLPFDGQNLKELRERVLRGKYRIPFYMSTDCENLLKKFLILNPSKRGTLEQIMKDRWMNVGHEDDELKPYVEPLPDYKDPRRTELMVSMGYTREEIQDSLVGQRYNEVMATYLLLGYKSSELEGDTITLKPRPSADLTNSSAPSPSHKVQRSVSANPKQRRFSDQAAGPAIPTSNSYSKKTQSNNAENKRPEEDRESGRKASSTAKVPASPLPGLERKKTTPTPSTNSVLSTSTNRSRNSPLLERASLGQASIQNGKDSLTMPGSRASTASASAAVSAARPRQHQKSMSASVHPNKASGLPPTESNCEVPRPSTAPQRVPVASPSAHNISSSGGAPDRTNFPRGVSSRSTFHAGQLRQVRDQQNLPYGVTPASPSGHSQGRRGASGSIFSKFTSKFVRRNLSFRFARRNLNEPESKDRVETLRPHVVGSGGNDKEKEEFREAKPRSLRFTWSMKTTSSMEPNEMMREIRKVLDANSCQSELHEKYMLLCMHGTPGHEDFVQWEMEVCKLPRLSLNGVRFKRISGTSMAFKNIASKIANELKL

SMILES | NUAK1 cell TE pIC50 (NUAK1 [1]) | NUAK1 pIC50 (NUAK1 [2]) | MARK3 pIC50 (MARK3) | MARK3 Fold selectivity IC50/NUAK1 IC50 (MARK3) | further results
Cc1cc(=O)n(C2CCCC2)c2nc(Nc3ccc(N4CCN(C(C)C)CC4)cc3)ncc12 [Compound 5] | 6.6 | 8.4 | 6.5 | 71 fold | IC50 (MARK2): 5.62 µM; MARK2 Fold selectivity IC50/NUAK1 IC50 (MARK2): 1259 fold; IC50 (NUAK1 [2]): 0.00447 µM; IC50 (MARK1): 3.8 µM; MARK1 Fold selectivity IC50/NUAK1 IC50 (MARK1): 851 fold; IC50 (AMPKA α1β2γ1 [3]): 1.07 µM; AMPKA Fold selectivity IC50/NUAK1 IC50 (AMPKA α1β2γ1 [4]): 240 fold; IC50 (MARK4): 9.12 µM; MARK4 Fold selectivity IC50/NUAK1 IC50 (MARK4): 2042 fold; half-life at 0.75 h, 1 µM [5]: 2.2 min
COc1cc(N2CCN(C)CC2)ccc1Nc1ncc2c(C)cc(=O)n(C3CCCC3)c2n1 [Compound 12] |  | 6.6 | < 4.6 | > 89 fold | 
CN1C2CC1CN(c1ccc(Nc3ncc4ccn(C5CCOC5)c4n3)cc1)C2 (stereo not drawn) [Compound 30] |  |  |  | 388 fold | IC50 (NUAK1 [2]): 0.0158 µM; IC50 (MARK3): 6.31 µM
COc1cc(Nc2ncc3c(C)cc(=O)n(C4CCCC4)c3n2)cc(OC)c1OC [Compound 15] | 6.6 | 8.21 and 8.2 | 5.8 | 288 fold | IC50 (AMPKA α1β2γ1 [3]): > 75.9 µM; AMPKA Fold selectivity IC50/NUAK1 IC50 (AMPKA α1β2γ1 [4]): > 12000 fold
CN1C2CC1CN(c1ccc(Nc3ncc4ccn(CC5CCOC5)c4n3)cc1)C2 (stereo not drawn) [Compound 29] | 6.4 | 8.1 | 5.3 | 641 fold | IC50 (AMPKA α1β2γ1 [3]): 5.62 µM; AMPKA Fold selectivity IC50/NUAK1 IC50 (AMPKA α1β2γ1 [4]): 708 fold; half-life at 1 µM [5]: 12.8 min
CN1CCN(c2ccc(Nc3ncc4c(n3)N(C3CCCC3)C(=O)C(C)(C)O4)cc2)CC1 [Compound 6] | <4.6 | 6.8 | 5.9 | 8 fold | 
COc1cc(Nc2ncc3c(n2)N(C2CCCC2)C(=O)C(C)(C)O3)cc(OC)c1OC [Compound 19] | inactive | 7.4 | 5.6 | 57 fold | IC50 (NUAK1 [1]; read-out: NUAK1 cell TE pIC50 (converted)): > 25.1 µM; half-life at 1 µM [5]: 1.4 min
Cc1nc(Nc2cnn(C3CCNCC3)c2)nc2c1N(C)C(=O)c1cc3ccccc3cc1N2C [Compound 2, HTH-01-015, reference compound] | < 4.3 |  |  |  | 
CN1C2CC1CN(c1ccc(Nc3ncc4ccn(C5COC5)c4n3)cc1)C2 [Compound 31] |  | 7.8 | 5.4 | 263 fold | 
CC(=O)c1c(C)c2cnc(Nc3ccc(N4CCNCC4)cn3)nc2n(C2CCCC2)c1=O [Compound 14, Palbociclib, reference compound] |  |  |  |  | IC50 (NUAK1 [2]): 20 µM
COc1cc(Nc2ncc3cc(C#N)c(=O)n(C4CCCC4)c3n2)cc(OC)c1 [Compound 17] | <4.6 | 7.4 | < 4.6 | > 676 fold | 
Cc1cc(=O)n(CC(O)CO)c2nc(Nc3ccc(N4CC5CC(C4)N5C)cc3)ncc12 (stereo not drawn) [Compound 22] |  | 7.0 | 5.7 | 20 fold | 
COc1nn(C)cc1Nc1ncc2c(C)cc(=O)n(C3CCCC3)c2n1 [Compound 18] |  | 6.5 | 4.9 | 40 fold | 
CC(C)N1CCN(c2ccc(Nc3ncc4ccn(CC5CCOCC5)c4n3)cc2)CC1 [Compound 25] | 7.0 | 8.59 and 8.6 | 5.59 and 5.6 | 1000 fold and 1005 fold | IC50 (MARK2): 7.08 µM; MARK2 Fold selectivity IC50/NUAK1 IC50 (MARK2): 2754 fold; IC50 (MARK1): 3.55 µM; MARK1 Fold selectivity IC50/NUAK1 IC50 (MARK1): 1380 fold; IC50 (AMPKA α1β2γ1 [3]): 2.69 µM; AMPKA Fold selectivity IC50/NUAK1 IC50 (AMPKA α1β2γ1 [4]): 1047 fold; IC50 (MARK4): 11.5 µM; MARK4 Fold selectivity IC50/NUAK1 IC50 (MARK4): 4467 fold; half-life at 1 µM [5]: 13.9 min
COCCn1c(=O)cc(C)c2cnc(Nc3ccc(N4CC5CC(C4)N5C)cc3)nc21 [Compound 21] |  | 6.7 | 5.2 | 35 fold | 
COc1cc(Nc2ncc3cc(C#N)c(=O)n(C4CCCC4)c3n2)cc(OC)c1OC [Compound 16, ON123790, reference compound] | inactive | 7.7 | < 4.6 | > 1098 fold | NUAK1 cell TE pIC50 (NUAK1 [1]; listed as ON123790 (16)): <4.6; half-life at 1 µM [6]: 13.6 min; half-life at 0.75 h, 1 µM [5]: 1.9 min
Cc1cc(=O)n(C2CCCC2)c2nc(Nc3ccc(N4CCNCC4)cn3)ncc12 [Compound 13] |  |  |  | > 11 fold | IC50 (NUAK1 [2]): 0.316 µM; IC50 (MARK3): > 3.16 µM
